Read-outs that look alike come from different tables or passages of the source.
Experiments:
[1] = tested on: tyrosinase de champignon; assay: Relative affinity by competitive binding, ultrafiltration and UPLC-MS/UV (Example 1); details: equimolar ligands; for Facteur de normalisation, solution traitée: NFTB, peak area UV 270 nm relative to reference ligand moracénine B; for Affinités relatives: RA = NFTB/NFeq, reference ligand moracénine B
Description: Une solution de travail de tyrosinase de champignon à 1.25 mg/mL est préparée en dissolvant de la poudre de l'enzyme lyophilisée dans 50 mM d'acétate d'ammonium, avec un pH de 7.0. L'échantillon est préparé en utilisant l'un des solvants suivants : des glycols, DMSO (diméthylsulfoxide), l'éthanol, pur ou en solution dans l'eau. La concentration dans l'échantillon des ligands initiaux est équimolaire et doit être dans la gamme de 0,75 à 1 mM. Les ligands choisis étaient des inhibiteurs connus de la tyrosinase isolés depuis des racines de murier noir (Morus nigra) : la moracénine A, moracénine B et la kuwanone C. Un échantillon de référence est préparé également en diluant l'échantillon de 10 à 20 fois dans une solution d'eau et d'un quart de volume d'acétonitrile.
• 1. Étape de préconditionnement - Des puits à membrane filtrante sont pré-conditionnées avec un volume de 500 µl d'une solution à 85% d'acétate d'ammonium et 15% d'éthanol qui est passé à travers la membrane avec une centrifugation de 14000 g pendant 60 secondes. • 2. Étape de liaison - La préparation de tyrosinase (1.25 mg/mL, 75 µL) est mélangée avec 5 µl de l'échantillon dans un tube d'Eppendorf en plastique, puis est incubée pendant 5 min. Dans ce mélange, on a 9,16 µM de tyrosinase et une gamme de 46,88 µM à 62,5 µM de ligands (moracénine A, moracénine B et kuwanone C) soit un ratio ligands/cible allant de 5,12 à 6,83. • 3. Étape de lavage - le mélange de l'enzyme et de l'échantillon est déposé dans un puits préconditionné à l'étape de préconditionnement, puis centrifugé à 14000 g jusqu'à l'élimination de l'essentiel du solvant. Les complexes enzyme-ligands restent à la surface de la membrane du filtre puis sont à nouveau suspendu dans un volume de 100 µL de la même solution à 85% d'acétate d'ammonium et 15% d'éthanol et centrifugé à 14000 g jusqu'à élimination du solvant. Cette procédure est répétée trois fois et élimine tous les composés qui ne sont pas liés à l'enzyme. • 4. Étape de séparation - Les complexes enzyme-ligands retenus dans le filtre sont à nouveau suspendus dans un volume de 10 µL d'eau ultra-pure, puis sont mélangés avec un volume de 40 µL d'acétonitrile pour dénaturer et précipiter l'enzyme et, en même temps libérer les ligands. Le mélange est centrifugé à 21000 g pendant 10 min pour séparer le précipité du surnageant. • 5. Étape d'analyse - Ledit surnageant formant la solution traitée est analysé par chromatographie en phase liquide couplée à une spectrométrie de masse, connue également par l'acronyme UPLC-MS. L'échantillon de référence est analysé également de la même manière, en utilisant les mêmes conditions d'analyse. Les affinités relatives sont calculées selon la méthode décrite ci-après. De préférence, l'échantillon de référence et la solution traitée sont analysés séquentiellement pour éliminer des dispersions dues aux réglages de l'appareillage.
Une analyse par chromatographie en phase liquide fournit un chromatogramme tel que montré par les figures 1 et 2. Le chromatogramme représente une intensité de signal en fonction du temps de rétention dans une colonne. Le signal présente différents pics d'intensité variable. Chaque pic est associé à l'un des ligands présent dans l'échantillon et la solution traitée. • 1. Normalisation de l'intensité du signal analytique pour les ligands dans l'échantillon de référence. Pour chaque chaque ligand CEi dans l'échantillon de référence, on établit des facteurs de normalisation NFeq dudit ligand CEi par comparaison au ligand de référence REF, selon l'équation suivante : NFeq,CEi = (ISeq,CEi)/(ISeq,REF) [formula] où : • NF est un facteur de normalisation; • ISeq,CEi est l'intensité du signal analytique pour le ligand CEi dans l'échantillon; • ISeq,REF est l'intensité du signal analytique pour le ligand de référence REF dans l'échantillon. L'intensité peut être choisie parmi l'aire du pic ou la valeur maximale du pic. Le facteur de normalisation du ligand de référence vaut toujours 1. • 2. […]

[2] = biological target: collagénase issue de Clostridium histolyticum; assay: Collagenase inhibition with synthetic substrate FALGPA (Example 4); type: biochemical; details: for activité de la collagénase: ligand 5µM, FALGPA 1 mM, tris-HCl buffer alone = 100%
Description: L'activité inhibitrice de la collagénase issue de Clostridium histolyticum a été expérimentée en mettant en présence de la collagénase et du substrat synthétique FALGPA (N-(3-[2-Furyl]acryloyl)-Leu-Gly-Pro-Ala) préparé à une concentration de 1 mM, du tampon tris-HCI seul pour établir une référence, et en présence respectivement de tampon tris-HCI additionné de 3,5-DCQ et 3,5-DCQ-DPG en concentration à 5µM. La référence montrant une activité de la collagénase de 100%, on a mesuré une activité de la collagénase de 94% en présence de 3,5-DCQ et une activité de 50% en présence de 3,5-DCQ-DPG. A cette concentration, la collagénase de Clostridium histolyticum est inhibée de manière significative par le 3,5-DCQ-DPG, tandis qu'elle ne l'est que très peu par le 3,5-DCQ.

[3] = tested on: collagénase issue de Clostridium histolyticum; assay: Relative affinity by competitive binding, ultrafiltration and LC-MS (Examples 2, 3, 6); details: for Affinités relatives: reference 3,5-DCQ
Description: Une solution de travail de collagénase issue de Clostridium histolyticum à 6.25 mg/mL est préparée en dissolvant de la poudre de l'enzyme lyophilisée dans 50 mM d'acétate d'ammonium, avec un pH de 7.5, ajusté par une solution aqueuse d'ammoniac. L'échantillon est préparé en utilisant l'un des solvants suivants : des glycols, le DMSO (diméthylsulfoxide), l'éthanol, pur ou en solution dans l'eau. La concentration dans l'échantillon des ligands initiaux est équimolaire et doit être dans la gamme de 0,75 à 1 mM. Les ligands choisis étaient des isomères d'acide 3,5-dicaféoylquinique (noté 3,5-DCQ par la suite) et des isomères d'esters d'acide 3,5-dicaféoylquinique et de dipropylène glycol (noté 3,5-DCQ-DPG par la suite). Un échantillon de référence est préparé également en diluant l'échantillon de 10 à 20 fois dans une solution d'eau et d'un quart de volume d'acétonitrile.
• 1. Étape de préconditionnement - Des puits à membrane filtrante sont pré-conditionnées avec un volume de 500 µl d'acétate d'ammonium 50mM pH 7,5 qui est passé à travers la membrane avec une centrifugation de 14000 g pendant 60 secondes. • 2. Étape de liaison - Un volume de 75 µl de la solution de collagénase à une concentration de 6,25mg/ml dans 50 mM d'acétate d'ammonium, avec un pH de 7.5 est mélangé avec 10 µl de l'échantillon pendant 10 min dans un tube d'Eppendorf en plastique. Dans ce mélange, on a 55,79 µM de collagénase et une gamme de 93,75 µM à 125 µM de ligands (3,5-DCQ et 3,5-DCQ-DPG) soit un ratio ligands/cible entre […]. • 3. Étape de lavage - Le mélange de l'enzyme et de l'échantillon est déposé dans un puits préconditionné à l'étape de préconditionnement, puis centrifugé à 14000 g jusqu'à l'élimination de l'essentiel du solvant. Les complexes enzyme-ligands restent à la surface de la membrane du filtre puis sont à nouveau suspendu dans un volume de 100 µL de la même solution à 50 mM d'acétate d'ammonium, avec un pH de 7.5 et centrifugé à 14000 g jusqu'à élimination du solvant. Cette procédure est répétée trois fois et élimine tous les composés qui ne sont pas liés à l'enzyme. • 4. Étape de séparation - Les complexes enzyme-ligands retenus dans le filtre sont à nouveau suspendus dans un volume de 10 µL d'eau ultra-pure, puis sont mélangés avec un volume de 40 µL d'acétonitrile pour dénaturer et précipiter l'enzyme et, en même temps libérer les ligands. Le mélange est centrifugé à 21000 g pendant 10 min pour séparer le précipité du surnageant. • 5. Étape d'analyse - Ledit surnageant formant la solution traitée est analysé par chromatographie en phase liquide couplée à une spectrométrie de masse. L'échantillon de référence est analysé également de la même manière, en utilisant les mêmes conditions d'analyse. Les affinités relatives sont calculées selon la méthode décrite ci-après. Le résultat est sur la première ligne du tableau 3.
Plusieurs échantillons sont préparés comme dans l'exemple 2, mais avec une proportion entre les ligands 3,5-DCQ et 3,5-DCQ-DPG non plus équimolaire mais déséquilibrée, comme indiqué dans le tableau 3 ci-après.
L'analyse est conduite de la même manière que dans l'exemple 2. Les résultats sont de la deuxième à la quatrième ligne du tableau 3.
La préparation des échantillons (ligands et cible) et leur analyse ont été réalisés selon l'exemple 2. Les effets des variations du rapport de ligands/cible ont été évalués.
Une analyse par chromatographie en phase liquide fournit un chromatogramme tel que montré par les figures 1 et 2. Le chromatogramme représente une intensité de signal en fonction du temps de rétention dans une colonne. Le signal présente différents pics d'intensité variable. Chaque pic est associé à l'un des ligands présent dans l'échantillon et la solution traitée. • 1. Normalisation de l'intensité du signal analytique pour les ligands dans l'échantillon de référence. […]

[4] = biological target: collagénase issue de Clostridium histolyticum; details: J. Nat. Prod. 2005, 68, 794-796; cited from earlier work
[5] = ex. 2, molar ratio 3,5-DCQ-DPG/3,5-DCQ 1/1 (équimolaire)
[6] = ex. 3.1, molar ratio 3,5-DCQ-DPG/3,5-DCQ 0,5/1
[7] = ex. 3.2, molar ratio 3,5-DCQ-DPG/3,5-DCQ 0,2/1
[8] = ex. 3.3, molar ratio 3,5-DCQ-DPG/3,5-DCQ 3/1

For `CC(C)=CCc1c(-c2ccc(O)cc2O)oc2c(CC=C(C)C)c(O)cc(O)c2c1=O` [kuwanone C], the “Facteur de normalisation, solution traitée” value (“Facteur de normalisation” for short) [1] was 0,78 and the Affinités relatives [1] was 1,07.

For moracénine B, the “Facteur de normalisation” value [1] was 1,00 and the Affinités relatives [1] was 1,00.

With “esters d'acide 3,5-dicaféoylquinique et de dipropylène glycol [3,5-DCQ-DPG]” the IC50 ([2]; approximate, from Example 4 (50% activity at 5µM)) was ~5 µM, the “activité de la collagénase” value [2] was 50% and the “Facteur de normalisation” value [3, 5] was 6,03. The Affinités relatives [3, 5] was 5,21, the “Facteur de normalisation” value [3, 6] was 2,49 and the Affinités relatives [3, 6] was 4,05. The “Facteur de normalisation” value [3, 7] was 0,81, the Affinités relatives [3, 7] was 3,01 and the “Facteur de normalisation” value [3, 8] was 13,64. For the same compound, the Affinités relatives [3, 8] was 4,09, the “(RADCQ−DPG^Mx)/(RADCQ−DPG^Mref)” value ([3]; sample M_1: collagénase 32,1 µM, DCQ/DCQ-DPG 75/75 µM, ligands/collagénase 2,33, competition) was 0,96 and the “(RADCQ−DPG^Mx)/(RADCQ−DPG^Mref)” value ([3]; sample M_2: collagénase 32,1 µM, DCQ/DCQ-DPG 50/50 µM, ligands/collagénase 1,56, competition) was 0,71. The “(RADCQ−DPG^Mx)/(RADCQ−DPG^Mref)” value ([3]; sample M_3: collagénase 32,1 µM, DCQ/DCQ-DPG 15/15 µM, ligands/collagénase 0,47, no competition) was 0,47.

For `O=C(/C=C/c1ccc(O)c(O)c1)OC1CC(O)(C(=O)O)CC(OC(=O)/C=C/c2ccc(O)c(O)c2)C1O` (stereo not drawn) [3,5-DCQ, acide 3,5-dicaféoylquinique], the “activité de la collagénase” value [2] was 94%, the “Facteur de normalisation” value [3, 5] was 1,00 and the Affinités relatives [3, 5] was 1,00. For the same compound, the “Facteur de normalisation” value [3, 6] was 1,00, the Affinités relatives [3, 6] was 1,00 and the “Facteur de normalisation” value [3, 7] was 1,00. The Affinités relatives [3, 7] was 1,00, the “Facteur de normalisation” value [3, 8] was 1,00 and the Affinités relatives [3, 8] was 1,00. The IC50 [4] was 23.6 µM.

Source: patent publication EP3516395B1, “METHOD FOR DETERMINING AFFINITY BETWEEN LIGANDS AND A TARGET” (Plant Advanced Technologies Pat, priority 2016, dated 2018)
